Measurements published in US8461183B2, “PPAR agonist compounds, preparation and uses” (Genfit, priority 2008, dated 2013).

Legend:
Type in all cases: cell-based
hPPARα = molecular target: T1, hPPARα (Homo sapiens, UniProt Q07869); assay: Gal4-hPPARα chimera transactivation (luciferase) in COS-7 cells; settings: COS-7 cells, Gal4-hPPARα, 24 hours; for EC50: luciferase, read-out: PPARα EC50; for Emax: relative to maximum activation obtained with fenofibric acid, read-out: PPARα TOP % (maximum activation)
T1 construct: corresponding to the DEF domains (structural elements of the promoter of the PPARs: D=hinge, EF=ligand fixation domain and AF2 fixation site); expressed in transfected cells; host or cells: COS-7 (monkey kidney fibroblasts)
T1 sequence (Q07869 239-466 limits assumed): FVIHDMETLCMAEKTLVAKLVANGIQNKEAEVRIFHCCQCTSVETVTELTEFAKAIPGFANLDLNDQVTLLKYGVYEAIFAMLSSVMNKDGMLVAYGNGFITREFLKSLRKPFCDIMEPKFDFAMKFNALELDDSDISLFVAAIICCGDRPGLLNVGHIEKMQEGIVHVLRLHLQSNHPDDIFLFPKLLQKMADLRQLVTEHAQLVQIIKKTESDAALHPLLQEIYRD
Method: (§1) Activation of PPARs is evaluated in vitro on a line of monkey kidney fibroblasts (COS-7) by measuring the transcriptional activity of chimeras consisting of the DNA binding domain of Gal4 transcription factor of yeast and of the ligand binding domain of the various PPARs of human origin (hPPAR).
(§2) The COS-7 cells are from ATCC and are cultivated in DMEM medium supplemented with 10% (vol/vol) of fetal calf serum, 1% of penicillin/streptomycin (Biochrom, AG), 1% of amino acids (Gibco) and 1% of sodium pyruvate (Gibco). The cells are incubated at 37° C. in a humid atmosphere containing 5% CO2.
(§3) The plasmids Gal4(RE)_TkpGL3, pGal4-hPPARα, pGal4-hPPARγ, pGal4-hPPARδ and pGal4-φ are described in the literature (Raspe E et al., 1999). The constructs pGal4-hPPARα, pGal4-hPPARγ and pGal4-hPPARδ were obtained by cloning, into the pGal4-φ vector, DNA fragments amplified by PCR corresponding to the DEF domains (structural elements of the promoter of the PPARs: D=hinge, EF=ligand fixation domain and AF2 fixation site) of the human nuclear receptors PPAα, PPARγ and PPARδ.
(§4) The adherent COS-7 cells are transfected with 40 μg of DNA per 225 cm^2 flask, with a pGal4-hPPAR/Gal4(RE)_TkpGL3 ratio of 1/10, in the presence of 10% of fetal calf serum. The cells are then detached and seeded in the absence of serum in 384-well plates (2×10^4 cells/well) then incubated for 4 hours at 37° C. The compounds are then diluted in a 96-well plate and then transferred to the 384-well plate. Activation with the test compounds is effected for a further 24 hours at 37° C. in the presence of 1% of synthetic serum Ultroser™ (Biosepra). These last 2 stages are automated by means of a Genesis Freedom 200™ station (Tecan). At the end of the experiment, the cells are lysed and the luciferase activity is determined using the Steady-Lite™ HTS (Perkin Elmer) according to the supplier's recommendations.
The test data are summarized in Table 8-1 below, which presents, for each compound, the values of maximum activation (TOP %) and the EC50 values measured for each isoform of PPAR. The values of maximum activation are expressed in percentages relative to the maximum activations obtained with reference agonists: fenofibric acid for PPARα, rosiglitazone for PPARγ and 2-methyl-4-((4-methyl-2-(4-trifluoromethylphenyl)-1,3-thiazol-5-yl)-methylsulfanyl)phenoxyacetic acid (also called GW501516) for PPARδ.

hPPARγ = molecular target: T2, hPPARγ (Homo sapiens, UniProt P37231); assay: Gal4-hPPARγ chimera transactivation (luciferase) in COS-7 cells; settings: 24 hours; for EC50: luciferase, read-out: PPARγ EC50; for Emax: relative to maximum activation obtained with rosiglitazone, read-out: PPARγ TOP % (maximum activation)
T2 construct: corresponding to the DEF domains (structural elements of the promoter of the PPARs: D=hinge, EF=ligand fixation domain and AF2 fixation site); expressed in transfected cells; host or cells: COS-7 (monkey kidney fibroblasts)
T2 sequence (P37231 238-503 limits assumed): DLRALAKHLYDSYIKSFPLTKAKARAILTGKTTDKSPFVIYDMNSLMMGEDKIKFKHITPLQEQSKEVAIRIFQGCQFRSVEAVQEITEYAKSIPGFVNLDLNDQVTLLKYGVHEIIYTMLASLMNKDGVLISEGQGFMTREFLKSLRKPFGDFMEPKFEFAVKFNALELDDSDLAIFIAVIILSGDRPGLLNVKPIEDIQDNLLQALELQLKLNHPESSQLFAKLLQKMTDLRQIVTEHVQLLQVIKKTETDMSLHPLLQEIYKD
Method: as §1, §2, §3, §4
(§5) The test data are summarized in Table 8-1 below, which presents, for each compound, the values of maximum activation (TOP %) and the EC50 values measured for each isoform of PPAR.

hPPARδ = molecular target: T3, hPPARδ (Homo sapiens, UniProt Q03181); assay: Gal4-hPPARδ chimera transactivation (luciferase) in COS-7 cells; settings: COS-7 cells, Gal4-hPPARδ, 24 hours; for EC50: luciferase, read-out: PPARδ EC50; for Emax: relative to maximum activation obtained with GW501516, read-out: PPARδ TOP % (maximum activation)
T3 construct: corresponding to the DEF domains (structural elements of the promoter of the PPARs: D=hinge, EF=ligand fixation domain and AF2 fixation site); expressed in transfected cells; host or cells: COS-7 (monkey kidney fibroblasts)
T3 sequence (Q03181 211-439 limits assumed): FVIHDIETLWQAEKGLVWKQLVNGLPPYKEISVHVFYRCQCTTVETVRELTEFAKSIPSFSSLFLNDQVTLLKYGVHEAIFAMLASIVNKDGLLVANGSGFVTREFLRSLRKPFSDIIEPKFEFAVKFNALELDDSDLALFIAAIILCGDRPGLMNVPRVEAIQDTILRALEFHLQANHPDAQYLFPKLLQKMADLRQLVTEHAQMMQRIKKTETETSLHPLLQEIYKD
Method: as §1, §2, §3, §4, §5

Structure (SMILES)	EC50 (hPPARα) [µM]	Emax (hPPARα) [%]	EC50 (hPPARγ) [µM]	Emax (hPPARγ) [%]	EC50 (hPPARδ) [µM]	Emax (hPPARδ) [%]
CC(Oc1ccc(NCc2ccc(-c3ccccc3)nc2OC(C)(C)C)cc1)C(=O)O (centres unmarked) [Cpd 10, 2-(4-(((2-tert-butyloxy-6-phenylpyridin-3-yl)methyl)amino)phenoxy)propanoic acid]	6.06	53.2	10.5	25.6	0.754	96.7
O=C(O)COc1ccc(OCc2ccc(-c3ccccc3)nc2N2CCCCC2)cc1 [Cpd 20, 2-(4-((6-phenyl-2-(piperidin-1-yl)pyridin-3-yl)methoxy)phenoxy)ethanoic acid]	14.3	34.2	30.2	43	5.26	87.7
CCC(Nc1ccc(CCC(=O)O)cc1)c1ccc(-c2ccccc2)nc1OC (centres unmarked) [Cpd 34, 3-(4-(1-((2-methoxy-6-phenylpyridin-3-yl)propyl)amino)phenyl)propanoic acid]	1.42	67.6	2.33	80.4	0.526	108
COc1ncc(-c2cccc(C(F)(F)F)c2)cc1CNc1ccc(CCC(=O)O)cc1 [Cpd 47, 3-(4-(((2-methoxy-5-(3-(trifluoromethyl)phenyl)pyridin-3-yl)methyl)amino)-phenyl)propanoic acid]	1.9	58.6	1.08	85	1.91	79.2
COc1nc(-c2ccccc2)ccc1CNc1ccc(C(C)CC(=O)O)cc1 (centres unmarked) [Cpd 45, 3-(4-(((2-methoxy-6-phenylpyridin-3-yl)methyl)amino)phenyl)butanoic acid]	6.43	43.2	2.39	79.4	3.36	97.3
COc1nc(-c2ccccc2)ccc1CNc1ccc(OC(C)C(=O)O)cc1 (centres unmarked) [Cpd 5, 2-(4-(((2-methoxy-6-phenylpyridin-3yl)methyl)amino)phenoxy)propanoic acid]	0.389	67.5	3.72	57.3	6.17	71
COc1nc(-c2ccccc2)ccc1CNc1ccc(OC(C)(C)C(=O)O)cc1 [Cpd 12, 2-(4-(((2-methoxy-6-phenylpyridin-3-yl)methyl)amino)phenoxy)-2-methyl-propanoic acid]	0.195	78.1	2.64	44.9	2.36	84.2
CC(C)(C)Oc1nc(-c2ccccc2)ccc1CNc1ccc(OC(C)(C)C(=O)O)cc1 [Cpd 9, 2-(4-(((2-tert-butyloxy-6-phenylpyridin-3-yl)methyl)amino)phenoxy)-2-methyl-propanoic acid]	4.5	33.7	6.09	23.9	0.464	74.2
O=C(O)COc1ccc(OCc2ccc(-c3ccccc3)nc2OC2CCCCC2)cc1 [Cpd 18, 2-(4-((2-cyclohexyloxy-6-phenylpyridin-3-yl)methoxy)phenoxy)ethanoic acid]	10.7	35.3	14.2	26.1	3.97	97.1
O=C(O)COc1ccc(OCc2ccc(-c3ccccc3)nc2Sc2ccccc2)cc1 [Cpd 25, 2-(4-((2-phenylthio-6-(phenyl)pyridin-3-yl)methoxy)phenoxy)ethanoic acid]	6.96	53.9	8.29	38.3	6.38	71
COc1nc(-c2ccccc2)ccc1CNc1cc(C)c(OCC(=O)O)c(C)c1 [Cpd 35, 2-(4-(((2-methoxy-6-phenylpyridin-3-yl)methyl)amino)-2,6-dimethyl-phenoxy)ethanoic acid]	0.647	26.1	6.18	38.8	1.54	13.2
COc1nc(-c2ccccc2)ccc1CN(C)c1ccc(CCC(=O)O)cc1 [Cpd 33, 3-(4-(((2-methoxy-6-phenylpyridin-3-yl)methyl)(methyl)amino)phenyl)-propanoic acid]	4.55	49.9	12.4	65	10.5	74.5
COc1cc(CCC(=O)O)ccc1NCc1ccc(-c2ccccc2)nc1OC [Cpd 44, 3-(3-methoxy-4-(((2-methoxy-6-phenylpyridin-3-yl)methyl)amino)-phenyl)-propanoic acid]	0.929	55.5	2.64	72.2	2.38	80.6
COc1nc(-c2ccccc2)c(-c2ccccc2)cc1CNc1ccc(SCC(=O)O)cc1 [Cpd 28, 2-(4-(((2-methoxy-5,6-diphenylpyridin-3-yl)methyl)amino)phenylthio)ethanoic acid]	1.74	55.4	11.3	45	25.2	49.1
COc1nc(-c2ccc(C(F)(F)F)cc2)ccc1COc1ccc(OC(C)(C)C(=O)O)cc1 [Cpd 21, 2-(4-((2-methoxy-6-(4-(trifluoromethyl)phenyl)pyridin-3-yl)methoxy)-phenoxy)-2-methylpropanoic acid]		70.2	1.43	51.5	0.276	100
COc1nc(-c2ccccc2)ccc1CSc1ccc(CCC(=O)O)cc1 [Cpd 37, 3-(4-((2-methoxy-6-phenylpyridin-3-yl)methylthio)phenyl)propanoic acid]	9.95	65.5	9.17	98.5	12.7	94.7
COc1ncc(-c2ccc3ccccc3c2)cc1CNc1ccc(CCC(=O)O)cc1 [Cpd 50, 3-(4-(((2-methoxy-5-(naphthalen-2-yl)pyridin-3-yl)methyl)amino)phenyl)-propanoic acid]	0.771	46.8	1.92	63.7	0.77	103
CC#CC(CC(=O)O)c1ccc(OCc2cc(-c3ccccc3)cnc2OC)cc1 (centres unmarked) [Cpd 52, 3-(4-((2-methoxy-5-phenylpyridin-3-yl)methoxy)phenyl)hex-4-ynoic acid]	13.7	34.3	2.76	54.8	19.8	16.1
